Test results from ChEMBL document CHEMBL1130150, “Conformationally restricted analogues of trimethoprim: 2,6-diamino-8-substituted purines as potential dihydrofolate reductase inhibitors from Pneumocystis carinii and Toxoplasma gondii” (J Med Chem, 1997).

Key:
[1] = target: T1, Bifunctional dihydrofolate reductase-thymidylate synthase (Toxoplasma gondii, UniProt Q07422); experiment: Inhibition of Toxoplasma gondii dihydrofolate reductase
T1 sequence (Q07422 whole entry): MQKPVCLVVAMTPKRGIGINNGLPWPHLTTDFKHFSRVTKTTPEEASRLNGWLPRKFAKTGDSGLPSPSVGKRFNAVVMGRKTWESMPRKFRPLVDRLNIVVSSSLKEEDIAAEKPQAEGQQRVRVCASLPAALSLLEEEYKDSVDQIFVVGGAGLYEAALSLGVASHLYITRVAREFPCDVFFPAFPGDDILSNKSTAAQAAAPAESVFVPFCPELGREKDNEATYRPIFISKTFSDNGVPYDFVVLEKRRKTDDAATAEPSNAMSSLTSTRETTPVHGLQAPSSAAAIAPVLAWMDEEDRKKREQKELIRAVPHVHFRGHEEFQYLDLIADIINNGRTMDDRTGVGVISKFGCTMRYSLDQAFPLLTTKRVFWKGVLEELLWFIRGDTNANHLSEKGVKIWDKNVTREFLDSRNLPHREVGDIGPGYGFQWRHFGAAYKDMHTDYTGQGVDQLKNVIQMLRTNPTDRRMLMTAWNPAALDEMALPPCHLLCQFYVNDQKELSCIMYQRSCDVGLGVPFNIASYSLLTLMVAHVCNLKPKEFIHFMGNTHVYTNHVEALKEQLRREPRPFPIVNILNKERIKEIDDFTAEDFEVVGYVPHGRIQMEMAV

[2] = target: T2, Dihydrofolate reductase (Rattus norvegicus, UniProt Q920D2)
T2 sequence (Q920D2 whole entry): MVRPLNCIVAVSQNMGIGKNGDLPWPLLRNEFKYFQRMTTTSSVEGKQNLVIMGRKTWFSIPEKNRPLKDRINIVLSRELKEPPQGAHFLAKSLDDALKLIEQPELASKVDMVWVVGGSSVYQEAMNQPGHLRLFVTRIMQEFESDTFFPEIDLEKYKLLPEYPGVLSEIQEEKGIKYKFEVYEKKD
Description: Inhibition of rat liver dihydrofolate reductase

[3] = target: T3, Dihydrofolate reductase (Pneumocystis carinii, UniProt P16184)
T3 sequence (P16184 whole entry): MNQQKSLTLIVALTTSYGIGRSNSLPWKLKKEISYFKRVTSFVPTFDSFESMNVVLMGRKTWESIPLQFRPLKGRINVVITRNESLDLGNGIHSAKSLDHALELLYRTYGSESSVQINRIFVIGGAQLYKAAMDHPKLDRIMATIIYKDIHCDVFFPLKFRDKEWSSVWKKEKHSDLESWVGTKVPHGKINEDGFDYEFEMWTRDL
Description: Inhibition of Pneumocystis carinii dihydrofolate reductase

[4] = target: T4, Bifunctional dihydrofolate reductase-thymidylate synthase (Toxoplasma gondii) (UniProt Q07422); experiment: Percent inhibition against Toxoplasma gondii Dihydrofolate reductase; details: concentration not given here
T4 sequence (whole entry): T1 sequence (Q07422 whole entry)

[5] = target: T5, Dihydrofolate reductase (Rattus norvegicus) (UniProt Q920D2); experiment: Percent inhibition against rat liver Dihydrofolate reductase; design: concentration or dose not given beside the values; details: concentration not given here
T5 sequence (whole entry): T2 sequence (Q920D2 whole entry)

| inhibition [5] [%] | Structure (SMILES) | IC50 [1] [µM] | IC50 [2] [µM] | IC50 [3] [µM] | inhibition [4] [%] |
| --- | --- | --- | --- | --- | --- |
|  | Nc1nc(N)c2[nH]c(-c3ccc(Cl)c(Cl)c3)nc2n1 | 6.7 | 252 |  |  |
|  | COc1cc(-c2nc3nc(N)nc(N)c3[nH]2)c([N+](=O)[O-])cc1OC |  | 25 | 25 |  |
|  | COc1ccc(OC)c(-c2nc3nc(N)nc(N)c3[nH]2)c1 | 1.7 | 3.5 | 37.4 |  |
|  | COc1ccc(-c2nc3c(N)nc(N)nc3[nH]2)cc1OC |  | 52.3 | 12 |  |
| 0 | Nc1nc(N)c2[nH]c(-c3ccncc3)nc2n1 | 20 | 18 | 18 | 14 |
| 19 | COc1cc(NCc2nc3[nH]c(N)nc(N)c-3n2)cc(OC)c1OC |  |  |  | 5 |
| 4 | Nc1nc(N)c2[nH]c(-c3c(Cl)cccc3Cl)nc2n1 | 11 | 11 | 11 | 6 |
|  | Nc1nc(N)c2nc(Cc3ccccc3)[nH]c2n1 | 0.5 | 1.6 |  |  |
|  | COc1ccc(-c2nc3c(N)nc(N)nc3[nH]2)c(OC)c1OC | 1.8 | 3.7 | 17 |  |
|  | Nc1nc(N)c2nc(-c3ccccc3)[nH]c2n1 | 28 | 59.9 | 153 |  |
| 15 | COc1ccc(-c2nc3[nH]c(N)nc(N)c-3n2)c2ccccc12 | 13 | 13 | 13 | 10 |
|  | COc1cc(OC)c(-c2nc3nc(N)nc(N)c3[nH]2)cc1OC | 1.5 | 7 | 22 |  |
|  | Nc1nc(N)c2nc(-c3ccc4ccccc4c3)[nH]c2n1 | 27 | 280 | 113 |  |
|  | Nc1nc(N)c2nc(C3c4ccccc4-c4ccccc43)[nH]c2n1 |  |  | 35 |  |
| 14 | COc1cc(-c2nc3[nH]c(N)nc(N)c-3n2)c([N+](=O)[O-])cc1OC |  |  |  |  |
|  | COc1cc(-c2nc3nc(N)nc(N)c3[nH]2)cc(OC)c1OC | 2.2 | 13 | 59.4 |  |
|  | COc1cc(OC)cc(-c2nc3nc(N)nc(N)c3[nH]2)c1 | 3 | 32.4 |  |  |
|  | Nc1nc(N)c2[nH]c(-c3ccc(-c4ccccc4)cc3)nc2n1 | 32.9 | 30.1 | 605 |  |
|  | COc1cc(-c2nc3c(N)nc(N)nc3[nH]2)cc(OC)c1O | 1 | 15.3 | 68 |  |
|  | COc1cc(OC)c(-c2nc3nc(N)nc(N)c3[nH]2)c(OC)c1 | 0.84 | 1.88 | 31.5 |  |
|  | COc1ccc(-c2nc3nc(N)nc(N)c3[nH]2)c(OC)c1 | 2.4 | 0.9 | 14 |  |
|  | Nc1nc(N)c2[nH]c(CSc3ccc4ccccc4c3)nc2n1 | 45 | 107 | 105 |  |

| Structure (SMILES) | inhibition [5] [%] | IC50 [1] [µM] | IC50 [2] [µM] | IC50 [3] [µM] | inhibition [4] [%] |
| --- | --- | --- | --- | --- | --- |
| COc1ccc(OC)c(NCc2nc3c(N)nc(N)nc3[nH]2)c1 | 15 | 49 | 29 | 29 |  |
